Laboratory results reported in patent US20240101544A1, “INHIBITORS OF QPCTL AND QPCT” (priority 2022, published 2024).

What was measured:
QPCTL = QPCTL (Homo sapiens (Human), UniProt Q9NXS2); test: QPCTL Enzymatic Activity Assay (coupled-enzyme fluorescent assay, H-Gln-AMC substrate); format: biochemical; conditions: recombinant truncated human QPCTL 10-12 nM, 10 μM H-Gln-AMC; read-out: QPCTL Inhibition IC50
Experimental: Protein expression was induced when the bacterial culture OD600 was approximately 0.7 using 1 mM IPTG and the cells incubated at 20° C. for approximately 16 hours. The QPCTL was purified using nickel column purification, digested by TEV, followed by a second nickel column purification. The protein was further purified by size-exclusion chromatography using a Superdex™ 75 column. The final protein was concentrated using ultrafiltration tubes at a molecular weight cutoff of 10 kilodaltons and stored frozen in protein buffer (25 mM Tris pH 8.3, 150 mM NaCl).
QPCTL activity was measured in a coupled-enzyme assay using the QPCTL substrate, glutamine-7-amido-4-methylcoumarin (H-Gln-AMC, Bachem), which is converted to pyroglutamyl-AMC by QPCTL. Pyroglutamyl-AMC is then converted to the fluorescent molecule, AMC, by incubation with the human enzyme pyroglutamyl peptidase-1. […] Final concentrations of DMSO and test compounds were 2% and 30-100 μM, respectively. Following the incubation, H-Gln-AMC substrate was diluted in assay buffer and added to each well for a final concentration of 10 μM. The reaction was incubated for 60 min at 37° C., before stopping it by boiling at 100° C. for 5 minutes and cooling the plate at 4° C. for 3 minutes. […] Following incubation, the fluorescence was measured with a plate reader using excitation at 380 nm and emission at 460 nm. […] Concentration-response-curves and IC50 values (Table 17) were generated using curve fit software.

QPCT (rhQPCT) = QPCT (rhQPCT) (Homo sapiens (Human), UniProt Q16769); test: QPCT Enzymatic Activity Assay (coupled-enzyme fluorescent assay, H-Gln-AMC substrate); format: biochemical; conditions: rhQPCT 10-12 nM, 10 μM H-Gln-AMC; read-out: QPCT Inhibition IC50
QPCT (rhQPCT), sequence (Q16769 29-361): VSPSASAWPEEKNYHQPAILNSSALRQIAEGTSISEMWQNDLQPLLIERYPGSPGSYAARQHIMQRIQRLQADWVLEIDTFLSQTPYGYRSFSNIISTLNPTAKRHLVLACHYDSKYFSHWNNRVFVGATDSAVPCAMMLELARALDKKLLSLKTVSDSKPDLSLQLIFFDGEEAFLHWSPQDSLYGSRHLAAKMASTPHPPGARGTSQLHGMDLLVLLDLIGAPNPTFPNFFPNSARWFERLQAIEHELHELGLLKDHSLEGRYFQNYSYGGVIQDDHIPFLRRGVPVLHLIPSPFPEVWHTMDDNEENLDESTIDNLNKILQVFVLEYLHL
Experimental: QPCT activity was measured in a coupled-enzyme assay using the QPCT substrate, glutamine-7-amido-4-methylcoumarin (H-Gln-AMC, Bachem), which is converted to pyroglutamyl-AMC by QPCT. Pyroglutamyl-AMC is then converted to the fluorescent molecule, AMC, by incubation with the human enzyme pyroglutamyl peptidase-1 (PGPEP-1). […] Following the incubation, H-Gln-AMC substrate was diluted in assay buffer and added to each well for a final concentration of 10 μM. The reaction was incubated for 60 min at 37° C., before stopping it by boiling at 100° C. for 5 minutes and cooling the plate at 4° C. for 3 minutes. […] Following incubation, the fluorescence was measured with a plate reader using excitation at 380 nm and emission at 460 nm. […] Concentration-response-curves and IC50 values (Table 17) were generated using Collaborative Drug Discovery software.

QPCTL, sequence (Q9NXS2 53-382): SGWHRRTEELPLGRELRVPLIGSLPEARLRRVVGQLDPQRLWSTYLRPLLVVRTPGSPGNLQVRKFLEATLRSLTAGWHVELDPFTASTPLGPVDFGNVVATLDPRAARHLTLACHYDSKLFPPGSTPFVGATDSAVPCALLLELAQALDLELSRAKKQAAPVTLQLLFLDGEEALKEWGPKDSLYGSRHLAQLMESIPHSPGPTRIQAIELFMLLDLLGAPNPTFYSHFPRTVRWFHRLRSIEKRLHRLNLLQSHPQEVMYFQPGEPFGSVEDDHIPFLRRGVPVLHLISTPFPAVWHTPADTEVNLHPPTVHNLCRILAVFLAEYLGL

IC50 (QPCTL)	IC50 (QPCT (rhQPCT))	SMILES
1000 to 10000 nM	1000 to 10000 nM	Cn1cnnc1C1CCN(c2c(C#N)cc(F)cc2-c2ccc(F)nc2)CC1 [Example 130, 5-fluoro-3-(6-fluoropyridin-3-yl)-2-(4-(4-methyl-4H-1,2,4-triazol-3-yl)piperidin-1-yl)benzonitrile]
100 to 1000 nM	< 100 nM	C#Cc1ccc(-c2cccc(C#N)c2N2CCC(c3nncn3C)CC2)cc1C=O [Example 128, 4′-ethynyl-3′-formyl-2-(4-(4-methyl-4H-1,2,4-triazol-3-yl)piperidin-1-yl)-[1,1′-biphenyl]-3-carbonitrile]
100 to 1000 nM	< 100 nM	Cn1cnnc1C1CCN(c2c(C#N)cccc2-c2cccc(C=O)c2)CC1 [Example 110, 3′-formyl-2-(4-(4-methyl-4H-1,2,4-triazol-3-yl)piperidin-1-yl)-[1,1′-biphenyl]-3-carbonitrile]
100 to 1000 nM	< 100 nM	Cn1cnnc1C1CCN(c2c(C#N)cccc2-c2cnc3cn[nH]c3c2)CC1 [Example 125, 2-(4-(4-methyl-4H-1,2,4-triazol-3-yl)piperidin-1-yl)-3-(1H-pyrazolo[4,3-b]pyridin-6-yl)benzonitrile]
< 100 nM	< 100 nM	Cn1cnnc1C1CCN(c2c(C#N)cccc2-c2ccc(O)nc2)CC1 [Example 116, 3-(6-hydroxypyridin-3-yl)-2-(4-(4-methyl-4H-1,2,4-triazol-3-yl)piperidin-1-yl)benzonitrile]
100 to 1000 nM	< 100 nM	Cn1cnnc1C1CCN(c2c(C#N)cccc2-c2ccc(F)cc2F)CC1 [Example 103, 2′,4′-difluoro-2-(4-(4-methyl-4H-1,2,4-triazol-3-yl)piperidin-1-yl)-[1,1′-biphenyl]-3-carbonitrile]
100 to 1000 nM	100 to 1000 nM	Cn1cnnc1C1CCN(c2c(C#N)cccc2-c2ccc3c(c2)B(O)OC3)CC1 [Example 121, 3-(1-hydroxy-1,3-dihydrobenzo[c][1,2]oxaborol-6-yl)-2-(4-(4-methyl-4H-1,2,4-triazol-3-yl)piperidin-1-yl)benzonitrile]
< 100 nM	< 100 nM	Cn1cnnc1C1CCN(c2c(C#N)cccc2-c2cncc(Br)c2)CC1 [Example 114, 3-(5-bromopyridin-3-yl)-2-(4-(4-methyl-4H-1,2,4-triazol-3-yl)piperidin-1-yl)benzonitrile]
100 to 1000 nM	< 100 nM	Cn1cnnc1C1CCN(c2c(C#N)cccc2-c2ccc(F)c(F)c2)CC1 [Example 102, 3′,4′-difluoro-2-(4-(4-methyl-4H-1,2,4-triazol-3-yl)piperidin-1-yl)-[1,1′-biphenyl]-3-carbonitrile]
< 100 nM	< 100 nM	Cn1cnnc1C1CCN(c2c(-c3ccc(F)nc3)ccc(OC3CCOC3)c2C#N)CC1 (single isomer, unassigned) [Example 89, 3-(6-fluoropyridin-3-yl)-2-(4-(4-methyl-4H-1,2,4-triazol-3-yl)piperidin-1-yl)-6-((tetrahydrofuran-3-yl)oxy)benzonitrile]

The remaining lines, values behind:

SMILES	IC50 (QPCTL)	IC50 (QPCT (rhQPCT))
COc1ccncc1-c1cccc(C#N)c1N1CCC(n2cnnc2C)CC1 [Example 18, 3-(4-methoxypyridin-3-yl)-2-[4-(3-methyl-4H-1,2,4-triazol-4-yl)piperidin-1-yl]benzonitrile]	> 10000 nM	> 10000 nM
N#Cc1cccc(-c2ccc(F)nc2)c1N1CCC(c2nnc[nH]2)CC1 [Example 49, 2-(4-(4H-1,2,4-triazol-3-yl)piperidin-1-yl)-3-(6-fluoropyridin-3-yl)benzonitrile]	100 to 1000 nM	100 to 1000 nM
COc1ccncc1-c1cccc(C#N)c1N1CCC(c2cncs2)CC1 [Example 14, 3-(4-methoxypyridin-3-yl)-2-[4-(1,3-thiazol-5-yl)piperidin-1-yl]benzonitrile]	100 to 1000 nM	100 to 1000 nM
Cn1ccc(-c2cnc(-c3ccc(F)nc3)c(N3CCC(c4nncn4C)CC3)c2C#N)n1 [Example 138, 6′-fluoro-5-(1-methyl-1H-pyrazol-3-yl)-3-(4-(4-methyl-4H-1,2,4-triazol-3-yl)piperidin-1-yl)-[2,3′-bipyridine]-4-carbonitrile]	> 10000 nM	1000 to 10000 nM
COc1ccncc1-c1ccc(-c2ccccc2)c(C#N)c1N1CCC(c2nncn2C)CC1 [Example 32, 4-(4-methoxypyridin-3-yl)-3-[4-(4-methyl-4H-1,2,4-triazol-3-yl)piperidin-1-yl]-[1,1′-biphenyl]-2-carbonitrile]	< 100 nM	< 100 nM
COc1ccncc1-c1cccc(C#N)c1N1CCC(c2nnc(N)s2)CC1 [Example 21, 2-[4-(5-amino-1,3,4-thiadiazol-2-yl)piperidin-1-yl]-3-(4-methoxypyridin-3-yl)benzonitrile]	100 to 1000 nM	100 to 1000 nM
[2H]C([2H])([2H])n1cnnc1C1CCN(c2c(-c3ccnnc3)ccc(-c3cnn(C)c3)c2C#N)CC1 [Example 55, 6-(1-methyl-1H-pyrazol-4-yl)-2-(4-(4-(methyl-d3)-4H-1,2,4-triazol-3-yl)piperidin-1-yl)-3-(pyridazin-4-yl)benzonitrile]	< 100 nM	< 100 nM
Cc1cc(-c2ccc(-c3cn[nH]c3)c(C#N)c2N2CCC(c3nncn3C)CC2)cnn1 [Example 74, 2-(4-(4-methyl-4H-1,2,4-triazol-3-yl)piperidin-1-yl)-3-(6-methylpyridazin-4-yl)-6-(1H-pyrazol-4-yl)benzonitrile]	< 100 nM	< 100 nM
Cc1ncn(-c2ccc(-c3ccc(F)nc3)c(N3CCC(c4nncn4C)CC3)c2C#N)n1 [Example 50, 3-(6-fluoropyridin-3-yl)-6-(3-methyl-1H-1,2,4-triazol-1-yl)-2-(4-(4-methyl-4H-1,2,4-triazol-3-yl)piperidin-1-yl)benzonitrile]	< 100 nM	< 100 nM
[2H]C([2H])([2H])n1cnnc1C1CCN(c2c(-c3ccc(F)nc3)ccc(-c3cnn(C)c3)c2C#N)CC1 [Example 54, 3-(6-fluoropyridin-3-yl)-6-(1-methyl-1H-pyrazol-4-yl)-2-(4-(4-(methyl-d3)-4H-1,2,4-triazol-3-yl)piperidin-1-yl)benzonitrile]	< 100 nM	< 100 nM
Cn1cnnc1C1CCN(c2c(C#N)cccc2-c2ccc(C(F)(F)F)nc2)CC1 [Example 29, 2-[4-(4-methyl-4H-1,2,4-triazol-3-yl)piperidin-1-yl]-3-[6-(trifluoromethyl)pyridin-3-yl]benzonitrile]	100 to 1000 nM	100 to 1000 nM
COc1ccncc1-c1cccc(C#N)c1N1CCC(n2ccnc2)CC1 [Example 13, 2-[4-(1H-imidazol-1-yl)piperidin-1-yl]-3-(4-methoxypyridin-3-yl)benzonitrile]	1000 to 10000 nM	100 to 1000 nM
Cn1cnnc1C1CCN(c2c(C#N)cccc2-c2ccc(Cl)nc2)CC1 [Example 40, 3-(6-chloropyridin-3-yl)-2-[4-(4-methyl-4H-1,2,4-triazol-3-yl)piperidin-1-yl]benzonitrile]	< 100 nM	100 to 1000 nM
[2H]C([2H])([2H])n1cnnc1C1CCN(c2c(-c3ccc(F)nc3)ccc(Cl)c2C#N)CC1 [Example 56, 6-chloro-3-(6-fluoropyridin-3-yl)-2-(4-(4-(methyl-d3)-4H-1,2,4-triazol-3-yl)piperidin-1-yl)benzonitrile]	< 100 nM	< 100 nM
